In publication PMC5998061 (2018):

Legend:
[1] = test system: MG RNA aptamer (malachite green RNA aptamer) (RNA, aptamer) GGAUCCCGACUGGCGAGAGCCAGGUAACGAAUGGAUCC; assay: fluorescence titration, Hill fit n = 1; conditions: 100 mM KCl, 1 mM Mg-citrate; 10 mM HEPES, 0.2 M bicine, pH 8.5, room temperature; no vesicles
[2] = test system: MG aptamer construct for SHAPE (MG aptamer SHAPE construct) (RNA, aptamer) GGGCCUUCGGGCCAAGGAUCCCGACUGGCGAGAGCCAGGUAACGAAUGGAUCCUCGAUCCGGUUCGCCGGAUCCAAAUCGGGCUUCGGUCCGGUUC; assay: SHAPE (NMIA), A30/A31 band ratio, Boltzmann fit; conditions: 100 mM KCl, 1 mM Mg-citrate; bicine pH 8.5; RNA outside empty myristoleic acid vesicles; MG incubation room temperature, NMIA 10 °C; apparent

KD [1]: 2500 ± 400 nM | midpoint [2]: 6.1 ± 0.7 µM
Compound: CN(C)c1ccc(C(=C2C=CC(=[N+](C)C)C=C2)c2ccccc2)cc1
